Source: US10526322B2, “Inhibitors of kidney-type glutaminase, GLS-1” (CORNELL UNIVERSITY, priority 2014, dated 2020)

Biological target: T1, 488-GAC (mouse kidney-type glutaminase isoform 2, GAC) (Mus musculus, UniProt D3Z7P3)
T1 construct: (residues 72-603) was cloned into a pET23a vector; His-tag with thrombin cleavage site (N, cleaved yes); made in house
T1 sequence (D3Z7P3 72-603 isoform D3Z7P3-2): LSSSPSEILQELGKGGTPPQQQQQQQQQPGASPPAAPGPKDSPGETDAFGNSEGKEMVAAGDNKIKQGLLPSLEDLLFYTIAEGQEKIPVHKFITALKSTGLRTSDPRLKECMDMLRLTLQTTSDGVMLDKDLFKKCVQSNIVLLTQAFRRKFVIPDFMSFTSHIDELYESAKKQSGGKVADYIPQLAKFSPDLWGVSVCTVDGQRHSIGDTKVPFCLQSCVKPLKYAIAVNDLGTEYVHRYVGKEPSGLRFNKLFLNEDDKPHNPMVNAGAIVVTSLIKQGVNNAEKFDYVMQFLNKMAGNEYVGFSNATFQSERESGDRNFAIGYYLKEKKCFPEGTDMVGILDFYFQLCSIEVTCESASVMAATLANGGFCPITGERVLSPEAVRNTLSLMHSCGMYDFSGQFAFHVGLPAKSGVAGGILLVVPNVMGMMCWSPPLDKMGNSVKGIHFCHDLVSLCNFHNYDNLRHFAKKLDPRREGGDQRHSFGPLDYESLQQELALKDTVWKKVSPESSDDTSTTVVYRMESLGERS
Test: Real-time binding assay, quenching of 488-GAC fluorescence
Conditions: 10 nM 488-GAC, 96-well plate format; read-out: KD of binding isotherm (fluorescence quenching)
Experimental: A plasmid encoding the mouse kidney-type glutaminase isoform 2 (GAC, GenBank Accession No. NP_001106854.1, which is hereby incorporated by reference in its entirety) (residues 72-603) was cloned into a pET23a vector containing an N-terminal histidine (His)-tag and thrombin cleavage site. The expressed protein was purified using Co^2+ affinity beads (Clontech), followed by His-tag cleavage with human thrombin (Haemetologic Technologies) overnight at 4° C., and subsequently purified by anion exchange (GE healthcare) and gel filtration chromatography. […] The stoichiometry of labeling was determined using the probe manufacturer's reported molar absorptivity values and instructions. Briefly, the concentration of GAC was determined by first correcting absorbance at 280 nm (Abs280) for each probe, using the reported correction values (0.11 for AlexaFluor 488 and 0.23 for QSY-9) and their absorbance values at their absorbance maxima (495 nm and 562 nm, respectively). The corrected Abs280 was used along with the experimentally determined molar absorptivity of GAC (ε280=38,850 M−1 cm−1). AlexaFluor 488 and QSY-9 probes were quantified using their respective absorbance maxima and the manufacturer's reported molar absorptivity values (ε495=71,000 M−1 cm−1 and ε562=85,000 M−1 cm−1). […]

CN(C)c1ccc(C2Nc3ccc4ccccc4c3C3=C2C(=O)CC(C)(C)C3)cc1Br (stereo not shown) [Compound 968] was tested, and the Kd was 3 µM.
